Where two headings read alike, the source gives them in different places.

In patent US11312682B2, “Selective inhibitors of carbonic anhydrase” (VILNIUS UNIVERSITY, priority 2015, dated 2022) one finds Kd data, which are given here for ten compounds.

One assay addresses human recombinant CA III (Homo sapiens, UniProt P07451). Briefly: Fluorescent thermal shift assay (FTSA), binding to CA III. Conditions: Table 1; FTSA at 37° C. and pH 7.0; read-out: Dissociation constants, CA III.
A further assay concerns the target human recombinant CA IV (Homo sapiens, UniProt P22748). Briefly: Fluorescent thermal shift assay (FTSA), binding to CA IV. To be noted: Table 1; FTSA at 37° C. and pH 7.0; read-out: Dissociation constants, CA IV.
Another assay addresses human recombinant CA VA (Homo sapiens, UniProt P35218). The experiment in a line: Fluorescent thermal shift assay (FTSA), binding to CA VA. Conditions: Table 1; FTSA at 37° C. and pH 7.0; read-out: Dissociation constants, CA VA.
A further assay has as its target human recombinant CA VB (Homo sapiens, UniProt Q9Y2D0). The experiment in a line: Fluorescent thermal shift assay (FTSA), binding to CA VB. Conditions: Table 1; FTSA at 37° C. and pH 7.0; read-out: Dissociation constants, CA VB.
The next assay deals with human recombinant CA VI (Homo sapiens, UniProt P23280). Briefly: Fluorescent thermal shift assay (FTSA), binding to CA VI. Conditions: Table 1; FTSA at 37° C. and pH 7.0; read-out: Dissociation constants, CA VI.
Chain of human recombinant CA VI (P23280 18-308): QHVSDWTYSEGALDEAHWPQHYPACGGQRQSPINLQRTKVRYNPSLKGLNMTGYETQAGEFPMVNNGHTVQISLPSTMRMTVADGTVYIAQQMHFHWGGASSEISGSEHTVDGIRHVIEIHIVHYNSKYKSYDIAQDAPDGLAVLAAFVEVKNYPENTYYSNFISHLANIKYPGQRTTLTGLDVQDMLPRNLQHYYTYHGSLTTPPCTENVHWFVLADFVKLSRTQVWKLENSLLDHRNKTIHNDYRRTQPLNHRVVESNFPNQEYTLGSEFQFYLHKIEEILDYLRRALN
The next assay deals with human recombinant CA VII (Homo sapiens, UniProt P43166). The experiment in a line: Fluorescent thermal shift assay (FTSA), binding to CA VII. To be noted: Table 1; FTSA at 37° C. and pH 7.0; read-out: Dissociation constants, CA VII.
Chain of human recombinant CA VII (P43166 whole entry): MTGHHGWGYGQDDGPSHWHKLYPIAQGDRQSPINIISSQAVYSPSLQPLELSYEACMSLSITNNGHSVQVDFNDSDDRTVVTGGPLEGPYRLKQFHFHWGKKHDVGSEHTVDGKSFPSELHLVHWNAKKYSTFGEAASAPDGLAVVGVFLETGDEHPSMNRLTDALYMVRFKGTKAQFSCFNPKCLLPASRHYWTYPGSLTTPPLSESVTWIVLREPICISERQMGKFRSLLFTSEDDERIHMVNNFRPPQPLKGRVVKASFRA
In a further assay the target is human recombinant CA IX (Homo sapiens, UniProt Q16790). Briefly: Fluorescent thermal shift assay (FTSA), binding to CA IX. Conditions: read-out: Dissociation constants, CA IX.
For the next assay, the target named is human recombinant CA XII (Homo sapiens, UniProt O43570). The experiment in a line: Fluorescent thermal shift assay (FTSA), binding to CA XII. To be noted: read-out: Dissociation constants, CA XII.
Chain of human recombinant CA XII (O43570 25-354): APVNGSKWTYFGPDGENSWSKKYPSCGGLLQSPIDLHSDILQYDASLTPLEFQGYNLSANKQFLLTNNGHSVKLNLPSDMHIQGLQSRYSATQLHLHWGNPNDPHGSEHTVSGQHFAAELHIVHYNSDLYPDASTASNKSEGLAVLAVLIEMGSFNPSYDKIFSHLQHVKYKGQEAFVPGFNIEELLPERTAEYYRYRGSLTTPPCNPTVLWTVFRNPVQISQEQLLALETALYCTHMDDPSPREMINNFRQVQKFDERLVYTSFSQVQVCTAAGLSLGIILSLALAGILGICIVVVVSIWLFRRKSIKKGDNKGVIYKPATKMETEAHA
Assay [1] concerns the target human recombinant CA XIII (Homo sapiens, UniProt Q8N1Q1). The experiment in a line: Fluorescent thermal shift assay (FTSA), binding to CA XIII. Conditions: Table 1; FTSA at 37° C. and pH 7.0; read-out: Dissociation constants, CA XIII.
The next assay has as its target human recombinant CA XIV (Homo sapiens, UniProt Q9ULX7). The experiment in a line: Fluorescent thermal shift assay (FTSA), binding to CA XIV. To be noted: read-out: Dissociation constants, CA XIV.
The next assay has as its target human recombinant CA I (Homo sapiens, UniProt P00915). Briefly: Fluorescent thermal shift assay (FTSA), binding to CA I. To be noted: Table 3; FTSA at 37° C., pH 7.0; read-out: Dissociation constants, CA I.
For a further assay, the target named is human recombinant CA II (Homo sapiens, UniProt P00918). The experiment in a line: Fluorescent thermal shift assay (FTSA), binding to CA II. To be noted: read-out: Dissociation constants, CA II.
Setting [2] is: Table 1, FTSA at 37° C. and pH 7.0.
[3] abbreviates: Table 3, FTSA at 37° C., pH 7.0.

Chain of human recombinant CA I (P00915 whole entry): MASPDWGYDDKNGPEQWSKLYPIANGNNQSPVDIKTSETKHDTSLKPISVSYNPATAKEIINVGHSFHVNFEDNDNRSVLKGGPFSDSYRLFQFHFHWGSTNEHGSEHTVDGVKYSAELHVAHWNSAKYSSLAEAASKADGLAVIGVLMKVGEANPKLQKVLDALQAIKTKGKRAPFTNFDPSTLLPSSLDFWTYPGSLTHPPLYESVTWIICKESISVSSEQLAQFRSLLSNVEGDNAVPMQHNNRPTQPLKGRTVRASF
Chain of human recombinant CA VA (P35218 39-305): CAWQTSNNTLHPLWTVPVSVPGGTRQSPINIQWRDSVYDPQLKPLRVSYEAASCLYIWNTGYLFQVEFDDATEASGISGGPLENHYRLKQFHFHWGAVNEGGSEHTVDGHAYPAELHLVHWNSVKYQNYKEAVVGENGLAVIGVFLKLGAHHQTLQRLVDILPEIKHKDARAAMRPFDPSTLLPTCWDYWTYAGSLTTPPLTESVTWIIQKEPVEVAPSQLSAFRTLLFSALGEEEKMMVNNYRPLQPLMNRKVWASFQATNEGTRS
Chain of human recombinant CA XIV (Q9ULX7 16-337): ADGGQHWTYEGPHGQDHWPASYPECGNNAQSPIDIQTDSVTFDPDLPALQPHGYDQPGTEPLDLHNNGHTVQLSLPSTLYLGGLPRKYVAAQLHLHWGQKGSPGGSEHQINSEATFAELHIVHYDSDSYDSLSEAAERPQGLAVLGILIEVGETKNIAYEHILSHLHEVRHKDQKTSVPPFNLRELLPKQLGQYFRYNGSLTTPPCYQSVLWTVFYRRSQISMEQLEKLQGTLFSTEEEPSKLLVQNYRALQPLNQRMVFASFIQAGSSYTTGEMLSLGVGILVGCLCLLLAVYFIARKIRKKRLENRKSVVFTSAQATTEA
Chain of human recombinant CA XIII (Q8N1Q1 whole entry): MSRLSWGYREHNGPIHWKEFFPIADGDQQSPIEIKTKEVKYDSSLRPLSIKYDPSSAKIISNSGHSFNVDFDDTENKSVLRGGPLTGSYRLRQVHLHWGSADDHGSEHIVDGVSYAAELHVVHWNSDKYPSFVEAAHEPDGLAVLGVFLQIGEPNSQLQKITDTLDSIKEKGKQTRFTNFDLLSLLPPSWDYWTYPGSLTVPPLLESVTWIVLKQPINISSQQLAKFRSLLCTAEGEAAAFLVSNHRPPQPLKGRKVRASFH
Chain of human recombinant CA III (P07451 whole entry): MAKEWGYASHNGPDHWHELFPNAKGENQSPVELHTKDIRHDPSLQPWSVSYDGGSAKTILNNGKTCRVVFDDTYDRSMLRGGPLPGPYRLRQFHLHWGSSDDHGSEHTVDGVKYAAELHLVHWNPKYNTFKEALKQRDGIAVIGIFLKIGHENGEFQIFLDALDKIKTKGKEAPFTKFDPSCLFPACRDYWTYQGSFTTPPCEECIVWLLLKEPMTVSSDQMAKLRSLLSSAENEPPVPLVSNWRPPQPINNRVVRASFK
Chain of human recombinant CA IV (P22748 19-284): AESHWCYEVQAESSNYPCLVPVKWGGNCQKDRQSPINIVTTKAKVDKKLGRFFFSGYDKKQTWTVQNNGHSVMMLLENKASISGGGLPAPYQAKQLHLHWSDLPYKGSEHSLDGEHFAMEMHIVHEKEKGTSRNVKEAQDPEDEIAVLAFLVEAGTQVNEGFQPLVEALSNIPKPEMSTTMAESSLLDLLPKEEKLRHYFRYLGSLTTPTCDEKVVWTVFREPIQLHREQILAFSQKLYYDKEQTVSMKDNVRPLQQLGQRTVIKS
Chain of human recombinant CA VB (Q9Y2D0 34-317): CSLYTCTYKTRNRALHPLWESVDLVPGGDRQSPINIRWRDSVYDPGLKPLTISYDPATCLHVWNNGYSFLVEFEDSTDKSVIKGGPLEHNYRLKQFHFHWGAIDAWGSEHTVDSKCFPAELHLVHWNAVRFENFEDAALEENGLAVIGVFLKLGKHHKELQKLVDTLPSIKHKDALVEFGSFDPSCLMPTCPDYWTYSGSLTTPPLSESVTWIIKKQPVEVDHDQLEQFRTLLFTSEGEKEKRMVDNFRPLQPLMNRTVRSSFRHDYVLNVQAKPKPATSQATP

“2,4-dichloro-5-[2-(5-methoxybenzimidazol-1-yl)acetyl]benzenesulfonamide and 2,4-dichloro-5-[2-(6-methoxybenzimidazol-1-yl)acetyl]benzenesulfonamide [Compound 31]”: the Kd at human recombinant CA III is 40000 nM; at human recombinant CA IV, 1400 nM; on human recombinant CA VA it was 6 nM; at human recombinant CA VB, 700 nM; on human recombinant CA VI it was 1800 nM; at human recombinant CA VII, 300 nM. The Kd at human recombinant CA IX (setting [2]) stood at 400 nM; at human recombinant CA XII (setting [2]), 2800 nM; in [1], 600 nM; at human recombinant CA XIV (setting [2]), 40 nM.

Take `COC(=O)c1cc(S(N)(=O)=O)c(Cl)cc1S(=O)(=O)c1ccccc1` [Compound 42a, methyl 2-(benzenesulfonyl)-4-chloro-5-sulfamoyl-benzoate]: the Kd at human recombinant CA XIV (Table 2, FTSA at 37° C., pH 7.0) stood at 0.03 nM.

Turning to `COC(=O)c1cc(S(N)(=O)=O)c(Cl)cc1SC1CCCCC1` [Compound 14b, methyl 4-chloro-2-cyclohexylsulfanyl-5-sulfamoyl-benzoate], the Kd on human recombinant CA I amounted to 17000 nM; at human recombinant CA II (setting [3]), 250 nM; on human recombinant CA IX (setting [3]), 0.3 nM; on human recombinant CA XII (setting [3]), 33 nM.

Turning to `Cc1cc2ncn(CC(=O)c3ccc(Cl)c(S(N)(=O)=O)c3)c2cc1C` [Compound 20, 2-chloro-5-[2-(5,6-dimethylbenzimidazol-1-yl)acetyl]benzenesulfonamide], the Kd at human recombinant CA II (setting [2]) is 600 nM; on human recombinant CA VA, 0.8 nM; on human recombinant CA IX (setting [2]), 600 nM; on human recombinant CA XII (setting [2]), 3100 nM; in assay [1] it was 800 nM; on human recombinant CA XIV (setting [2]) it was 50 nM.

`COC(=O)c1cc(S(N)(=O)=O)c(Cl)cc1SCCc1ccccc1` [Compound 14d, methyl 4-chloro-2-phenethylsulfanyl-5-sulfamoyl-benzoate]: the Kd was found to be 13000 nM on human recombinant CA I, 170 nM at human recombinant CA II (setting [3]), 13 nM on human recombinant CA IX (setting [3]) and 53 nM on human recombinant CA XII (setting [3]).

For the compound `Cc1cc2ncn(CC(=O)c3cc(S(N)(=O)=O)c(Cl)cc3Cl)c2cc1C` [Compound 30, 2,4-dichloro-5-[2-(5,6-dimethylbenzimidazol-1-yl)acetyl]benzenesulfonamide], the Kd was determined as 500 nM at human recombinant CA II (setting [2]), 5 nM on human recombinant CA VA, 700 nM on human recombinant CA VII and 300 nM at human recombinant CA XIV (setting [2]).

Regarding `COC(=O)c1cc(S(N)(=O)=O)c(Cl)cc1SCc1ccccc1` [Compound 14c, methyl 2-benzylsulfanyl-4-chloro-5-sulfamoyl-benzoate], the Kd is 6900 nM at human recombinant CA I, 110 nM at human recombinant CA II (setting [3]), 2.9 nM on human recombinant CA IX (setting [3]) and 22 nM on human recombinant CA XII (setting [3]).

For `NS(=O)(=O)c1cc(C(=O)Cn2cnc3ccccc32)ccc1Cl` [Compound 19, 5-[2-(benzimidazol-1-yl)acetyl]-2-chloro-benzenesulfonamide], the Kd at human recombinant CA III was greater than 200000 nM; on human recombinant CA IV it was 600 nM; on human recombinant CA VA it was 0.3 nM; at human recombinant CA VI, 700 nM; in [1], 800 nM; on human recombinant CA XIV (setting [2]), 50 nM.

In the case of `COC(=O)c1cc(S(N)(=O)=O)c(Cl)cc1Sc1ccccc1` [Compound 14a, methyl 4-chloro-2-phenylsulfanyl-5-sulfamoyl-benzoate], the Kd on human recombinant CA I turned out to be 10000 nM; on human recombinant CA XII (setting [3]), 6.7 nM.

As to `NS(=O)(=O)c1cc(C(=O)Cn2cnc3ccccc32)c(Cl)cc1Cl` [Compound 29, 5-[2-(benzimidazol-1-yl)acetyl]-2,4-dichloro-benzenesulfonamide], the Kd on human recombinant CA VA was 2 nM; at human recombinant CA VII it was 100 nM; at human recombinant CA IX (setting [2]), 400 nM; in assay [1] it was 700 nM; on human recombinant CA XIV (setting [2]) it was 20 nM.
